System: Lactobacillus plantarum - clinical strain
Assay: Determination of the MIC value of totarol, broth dilution in 96-well plates with OD and quantitative culture
Format: cell-based
Settings: for OD, average of 3 measurements / OD: 620 nm
Procedure: Test of antibacterial activity of totarol using DMI (dimethylisosorbide) as a solvent.
A suspension of 0.5 McF in physiological saline (suspension density 10^8 cfu/ml) was prepared from a 24-hour culture of a standard strain. 1 ml of the suspension was collected to 9 ml of a TSB broth ([…]). Suspensions with a dilution of 10^−6 were prepared in the described way. A suspension with a cell density of 10^5 cfu/ml was selected for further investigations. For each strain, 2 96-well plates were prepared: the first one was intended for the OD measurement, the second one—for quantitative culture on solid media. • A/ to wells B1-D1, B2-D2 and B-D 4-11, 100 µl of the broth were added; • B/ to wells B3-D3, 200 µl of the broth were added; • C/ to wells B1-D1, 1 µl of stock I was added; • D/ to wells B2-D2, 1 µl of stock II was added; • E/ to wells B3-D3, 2 µl of stock III were added. Using a multichannel pipette, 100 µl of the sample were collected from each of the B3-D3 wells and placed in wells B4-D4 (mixing by sucking the content in and letting it out for 5 times). The pipette tips were replaced and 100 µl of the content were collected from of the B4-D4 wells, and placed in wells B5-D5, mixing as previously. These operations were repeated through the wells B11-D11. The content in the B11-D11 wells was mixed, and 100 µl of the fluid were collected and discarded. This way, a series of dilutions of totarol samples in DMI in the range of 0.32% to 0.0004% was obtained. Then, 100 µl of a corresponding bacterial culture were added to the wells B, C, D 1-11. In consequence, a change in the final concentration range occurred, to 0.16%-0.0002%. Control Preparation: • Negative control: 100 µl of the broth+1 pl DMI were added to the Al well. • Positive control (I): 100 µl of the broth with the bacterial culture were added to the wells E1-G1. • Diluent positive control (II): 100 µl of the broth with the bacterial culture+1 pl DMI were added to the wells E2-G2. The OD value in the individual wells was read at the wavelength of 620 nm (read time 0). From the second 96-well plate, a culture was inoculated by a quantitative method from every dilution onto a well with a proper solid medium, and incubated for 24 h at 37° C. under aerobic or anaerobic conditions, depending on the strain. The plates were incubated under aerobic conditions or in an atmosphere of an elevated CO2 concentration (for the strains requiring it) in an incubator at 37° C. The OD was read after 8 h, 16 h, and 24 h, respectively. Before every OD measurement, the contents of the wells were mixed delicately. In parallel to the OD readout, cultures we inoculated from the second 96-well plate, from every dilution, into plates with a proper solid medium, and incubated for 24 h at 37° C., under aerobic or anaerobic conditions. For the analysis of the experimental results, an average value of the OD measurement obtained from three repetitions in the individual times (0, 8, 16, and 24 h) for the individual microbes (Gardnerella vaginalis, Streptococcus agalactiae, Enterococcus faecalis, Lactobacillus gasseri/plantarum) was taken. Additionally, the number of bacteria grown on solid media was taken into account. The results of the tests confirm the specific, concentration-dependent selectiveness, and the high antibacterial effectiveness of totarol against the pathogenic microorganisms: Gardnerella vaginalis, Streptococcus agalactiae, Enterococcus faecalis at low MIC values safe for bacteria of the Lactobacillus genus.

Compound: CC(C)c1c(O)ccc2c1CC[C@H]1C(C)(C)CCC[C@]21C [Totarol, totarol]
- MIC value (L. plantarum): 0.08%
- viable count by quantitative culture (cfu/ml) (totarol 0.0002%, 0 h): 3.9 × 10^5 cfu/ml
- OD, average of 3 measurements (totarol 0.0002%, 0 h): 0.291
- viable count by quantitative culture (cfu/ml) (totarol 0.0002%, 8 h): 3.5 × 10^5 cfu/ml
- OD, average of 3 measurements (totarol 0.0002%, 8 h): 0.305
- viable count by quantitative culture (cfu/ml) (totarol 0.0002%, 16 h): 4.2 × 10^6 cfu/ml
- OD, average of 3 measurements (totarol 0.0002%, 16 h): 0.854
- viable count by quantitative culture (cfu/ml) (totarol 0.0002%, 24 h): 2.9 × 10^7 cfu/ml
- OD (totarol 0.0002%, 24 h): 1.469
- viable count by quantitative culture (cfu/ml) (totarol 0.0004%, 0 h): 2.1 × 10^5 cfu/ml
- OD, average of 3 measurements (totarol 0.0004%, 0 h): 0.304
- viable count by quantitative culture (cfu/ml) (totarol 0.0004%, 8 h): 2 × 10^5 cfu/ml
- OD, average of 3 measurements (totarol 0.0004%, 8 h): 0.309
- viable count by quantitative culture (cfu/ml) (totarol 0.0004%, 16 h): 3.9 × 10^6 cfu/ml
- OD, average of 3 measurements (totarol 0.0004%, 16 h): 0.892
- viable count by quantitative culture (cfu/ml) (totarol 0.0004%, 24 h): 3.1 × 10^7 cfu/ml
- OD (totarol 0.0004%, 24 h): 1.508
- viable count by quantitative culture (cfu/ml) (totarol 0.0007%, 0 h): 6.5 × 10^5 cfu/ml
- OD, average of 3 measurements (totarol 0.0007%, 0 h): 0.292
- viable count by quantitative culture (cfu/ml) (totarol 0.0007%, 8 h): 4.5 × 10^5 cfu/ml
- OD, average of 3 measurements (totarol 0.0007%, 8 h): 0.300
- viable count by quantitative culture (cfu/ml) (totarol 0.0007%, 16 h): 8.1 × 10^6 cfu/ml
- OD, average of 3 measurements (totarol 0.0007%, 16 h): 0.902
- viable count by quantitative culture (cfu/ml) (totarol 0.0007%, 24 h): 5.1 × 10^7 cfu/ml
- OD (totarol 0.0007%, 24 h): 1.504
- viable count by quantitative culture (cfu/ml) (totarol 0.0013%, 0 h): 3.8 × 10^5 cfu/ml
- OD, average of 3 measurements (totarol 0.0013%, 0 h): 0.293
- viable count by quantitative culture (cfu/ml) (totarol 0.0013%, 8 h): 3.2 × 10^5 cfu/ml
- OD, average of 3 measurements (totarol 0.0013%, 8 h): 0.305
- viable count by quantitative culture (cfu/ml) (totarol 0.0013%, 16 h): 5.1 × 10^6 cfu/ml
- OD, average of 3 measurements (totarol 0.0013%, 16 h): 0.913
- viable count by quantitative culture (cfu/ml) (totarol 0.0013%, 24 h): 4.1 × 10^7 cfu/ml
- OD (totarol 0.0013%, 24 h): 1.521
- viable count by quantitative culture (cfu/ml) (totarol 0.0025%, 0 h): 2.8 × 10^5 cfu/ml
- OD, average of 3 measurements (totarol 0.0025%, 0 h): 0.284
- viable count by quantitative culture (cfu/ml) (totarol 0.0025%, 8 h): 1.0 × 10^5 cfu/ml
- OD, average of 3 measurements (totarol 0.0025%, 8 h): 0.303
- viable count by quantitative culture (cfu/ml) (totarol 0.0025%, 16 h): 8.4 × 10^6 cfu/ml
- OD, average of 3 measurements (totarol 0.0025%, 16 h): 0.914
- viable count by quantitative culture (cfu/ml) (totarol 0.0025%, 24 h): 1.4 × 10^7 cfu/ml
- OD (totarol 0.0025%, 24 h): 1.552
- viable count by quantitative culture (cfu/ml) (totarol 0.005%, 0 h): 4.2 × 10^5 cfu/ml
- OD, average of 3 measurements (totarol 0.005%, 0 h): 0.288
- viable count by quantitative culture (cfu/ml) (totarol 0.005%, 8 h): 1.2 × 10^5 cfu/ml
- OD, average of 3 measurements (totarol 0.005%, 8 h): 0.300
- viable count by quantitative culture (cfu/ml) (totarol 0.005%, 16 h): 1.8 × 10^6 cfu/ml
- OD, average of 3 measurements (totarol 0.005%, 16 h): 0.895
- viable count by quantitative culture (cfu/ml) (totarol 0.005%, 24 h): 3.8 × 10^7 cfu/ml
- OD (totarol 0.005%, 24 h): 1.476
- viable count by quantitative culture (cfu/ml) (totarol 0.01%, 0 h): 5.5 × 10^5 cfu/ml
- OD, average of 3 measurements (totarol 0.01%, 0 h): 0.295
- viable count by quantitative culture (cfu/ml) (totarol 0.01%, 8 h): 5 × 10^5 cfu/ml
- OD, average of 3 measurements (totarol 0.01%, 8 h): 0.298
- viable count by quantitative culture (cfu/ml) (totarol 0.01%, 16 h): 6.4 × 10^6 cfu/ml
- OD, average of 3 measurements (totarol 0.01%, 16 h): 0.871
- viable count by quantitative culture (cfu/ml) (totarol 0.01%, 24 h): 3.4 × 10^7 cfu/ml
- OD (totarol 0.01%, 24 h): 1.445
- viable count by quantitative culture (cfu/ml) (totarol 0.02%, 0 h): 7.5 × 10^5 cfu/ml
- OD, average of 3 measurements (totarol 0.02%, 0 h): 0.330
- viable count by quantitative culture (cfu/ml) (totarol 0.02%, 8 h): 1.0 × 10^5 cfu/ml
- OD, average of 3 measurements (totarol 0.02%, 8 h): 0.299
- viable count by quantitative culture (cfu/ml) (totarol 0.02%, 16 h): 5.1 × 10^6 cfu/ml
- OD, average of 3 measurements (totarol 0.02%, 16 h): 0.837
- viable count by quantitative culture (cfu/ml) (totarol 0.02%, 24 h): 3.1 × 10^7 cfu/ml
- OD (totarol 0.02%, 24 h): 1.375
- viable count by quantitative culture (cfu/ml) (totarol 0.04%, 0 h): 2.6 × 10^5 cfu/ml
- OD, average of 3 measurements (totarol 0.04%, 0 h): 0.398
- viable count by quantitative culture (cfu/ml) (totarol 0.04%, 8 h): 1.6 × 10^5 cfu/ml
- OD, average of 3 measurements (totarol 0.04%, 8 h): 0.370
- viable count by quantitative culture (cfu/ml) (totarol 0.04%, 16 h): 2.4 × 10^5 cfu/ml
- OD, average of 3 measurements (totarol 0.04%, 16 h): 0.379
- viable count by quantitative culture (cfu/ml) (totarol 0.04%, 24 h): 2.4 × 10^5 cfu/ml
- OD (totarol 0.04%, 24 h): 0.397
- viable count by quantitative culture (cfu/ml) (totarol 0.08%, 0 h): 3.2 × 10^5 cfu/ml
- OD, average of 3 measurements (totarol 0.08%, 0 h): 0.401
- viable count by quantitative culture (cfu/ml) (totarol 0.08%, 8 h): 1.2 × 10^4 cfu/ml
- OD, average of 3 measurements (totarol 0.08%, 8 h): 0.413
- viable count by quantitative culture (cfu/ml) (totarol 0.08%, 16 h): 3.5 × 10^4 cfu/ml
- OD, average of 3 measurements (totarol 0.08%, 16 h): 0.368
- viable count by quantitative culture (cfu/ml) (totarol 0.08%, 24 h): 5 × 10^4 cfu/ml
- OD (totarol 0.08%, 24 h): 0.357
- viable count by quantitative culture (cfu/ml) (totarol 0.16%, 0 h): 3.7 × 10^5 cfu/ml
- OD, average of 3 measurements (totarol 0.16%, 0 h): 0.472
- viable count by quantitative culture (cfu/ml) (totarol 0.16%, 8 h): 4 × 10^4 cfu/ml
- OD, average of 3 measurements (totarol 0.16%, 8 h): 0.320
- viable count by quantitative culture (cfu/ml) (totarol 0.16%, 16 h): 7.1 × 10^4 cfu/ml
- OD, average of 3 measurements (totarol 0.16%, 16 h): 0.346
- viable count by quantitative culture (cfu/ml) (totarol 0.16%, 24 h): 4.1 × 10^4 cfu/ml
- OD (totarol 0.16%, 24 h): 0.371

Source: patent US11534412B2, “Application of totarol and pharmaceutical composition containing totarol” (Emergopharm SP. Z O.O. SP.K., priority 2017, dated 2022)
